Experimental data published in PubChem BioAssay AID1963856 (Molecular Pharmacology Branch, DTP, NCI, 2024).
Values joined by “and” are separate entries in the source; they are usually repeats but may differ in a detail not shown here. Equal entries are not always repeated. Active and inactive are the calls of the source. Rule for the calls: active = viability on the fitted dose curve at most 10% of control; inactive = the rest.

System: LG0567-F671-PDC KRAS tumor spheroid viability
Assay: Anticancer human tumor LG0567-F671-PDC patient-derived lung adenocarcinoma cell line growth inhibition [KRAS2]
Conditions: spheroids with HUVEC and MSC; for viability, T/C: stronger effect = lower value
Summary of the method: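 KRAS-mutant tumor cells were grown as spheroids with HUVEC endothelial cells and human MSCs as stroma. Targeted agents were tested alone and with KRAS pathway inhibitors. Doses started at or near clinical Cmax, or 10 microM, descending half-log.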

[1] = curve of first compound, second compound 0.0316 µM
[2] = curve of first compound, second compound 0.1 µM
[3] = curve of first compound, second compound 0.316 µM
[4] = curve of first compound, second compound 1 µM
[5] = curve of first compound, second compound 3.16 µM
[6] = second compound 0.0316 µM, first compound 0.0316 µM
[7] = second compound 0.0316 µM, first compound 0.1 µM
[8] = second compound 0.0316 µM, first compound 0.316 µM
[9] = second compound 0.0316 µM, first compound 1 µM
[10] = second compound 0.1 µM, first compound 0.0316 µM
[11] = second compound 0.1 µM, first compound 0.1 µM
[12] = second compound 0.1 µM, first compound 0.316 µM
[13] = second compound 0.1 µM, first compound 1 µM
[14] = second compound 0.316 µM, first compound 0.0316 µM
[15] = second compound 0.316 µM, first compound 0.1 µM
[16] = second compound 0.316 µM, first compound 0.316 µM
[17] = second compound 0.316 µM, first compound 1 µM
[18] = second compound 1 µM, first compound 0.0316 µM
[19] = second compound 1 µM, first compound 0.1 µM
[20] = second compound 1 µM, first compound 0.316 µM
[21] = second compound 1 µM, first compound 1 µM
[22] = second compound 3.16 µM, first compound 0.0316 µM
[23] = second compound 3.16 µM, first compound 0.1 µM
[24] = second compound 3.16 µM, first compound 0.316 µM
[25] = second compound 3.16 µM, first compound 1 µM
[26] = curve of first compound, second compound 10 µM
[27] = second compound 0.1 µM, first compound 3.16 µM
[28] = second compound 0.1 µM, first compound 10 µM
[29] = second compound 0.316 µM, first compound 3.16 µM
[30] = second compound 0.316 µM, first compound 10 µM
[31] = second compound 1 µM, first compound 3.16 µM
[32] = second compound 1 µM, first compound 10 µM
[33] = second compound 3.16 µM, first compound 3.16 µM
[34] = second compound 3.16 µM, first compound 10 µM
[35] = second compound 10 µM, first compound 0.0316 µM
[36] = second compound 10 µM, first compound 0.1 µM
[37] = second compound 10 µM, first compound 0.316 µM
[38] = second compound 10 µM, first compound 1 µM
[39] = second compound 10 µM, first compound 3.16 µM
[40] = second compound 10 µM, first compound 10 µM
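Throughout, for IC50: drug exposure lasted seven days after spheroids formed for three days.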
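Throughout, for viability, T/C: drug exposure lasted seven days after spheroids formed for three days; 100% = DMSO vehicle control viability.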

CCN1CCN(Cc2ccc(Nc3ncc(F)c(-c4cc(F)c5nc(C)n(C(C)C)c5c4)n3)nc2)CC1 + C=CC(=O)N1CCN(c2nc(OCC3CCCN3C)nc3c2CCN(c2cccc4cccc(C)c24)C3)CC1CC#N
IC50 [1]: < 3.16 nM | IC50 [2]: < 3.16 nM | IC50 [3]: < 3.16 nM | IC50 [4]: < 3.16 nM | IC50 [5]: < 3.16 nM | viability, T/C (second compound 0.0316 µM, first compound 0.00316 µM): 36.1% | viability, T/C (second compound 0.0316 µM, first compound 0.01 µM): 32.4% | viability, T/C [6]: 22.2% | viability, T/C [7]: 26.6% | viability, T/C [8]: 27.6% | viability, T/C [9]: 31.4% | viability, T/C (second compound 0.1 µM, first compound 0.00316 µM): 32.8% | viability, T/C (second compound 0.1 µM, first compound 0.01 µM): 24.7% | viability, T/C [10]: 18.6% | viability, T/C [11]: 20% | viability, T/C [12]: 22.1% | viability, T/C [13]: 25.3% | viability, T/C (second compound 0.316 µM, first compound 0.00316 µM): 23.9% | viability, T/C (second compound 0.316 µM, first compound 0.01 µM): 25.3% | viability, T/C [14]: 16.7% | viability, T/C [15]: 22.5% | viability, T/C [16]: 23.7% | viability, T/C [17]: 27.7% | viability, T/C (second compound 1 µM, first compound 0.00316 µM): 27.7% | viability, T/C (second compound 1 µM, first compound 0.01 µM): 20.6% | viability, T/C [18]: 22.1% | viability, T/C [19]: 21.8% | viability, T/C [20]: 26% | viability, T/C [21]: 33.5% | viability, T/C (second compound 3.16 µM, first compound 0.00316 µM): 28% | viability, T/C (second compound 3.16 µM, first compound 0.01 µM): 30.7% | viability, T/C [22]: 25.6% | viability, T/C [23]: 29% | viability, T/C [24]: 31.4% | viability, T/C [25]: 29.4%

CC(C)NCC(C(=O)N1CCN(c2ncnc3c2C(C)CC3O)CC1)c1ccc(Cl)cc1 (stereo unspecified)
viability, T/C (compound 0.0316 µM): 101% [middle of 5 runs] | viability, T/C (compound 0.1 µM): 83.4% [middle of 5 runs] | viability, T/C (compound 0.316 µM): 65.9% [middle of 5 runs] | viability, T/C (compound 1 µM): 71.3% [middle of 5 runs] | viability, T/C (compound 10 µM): 72.5% [middle of 4 runs] | outcome (compound 10 µM): active | IC50 (curve of compound): > 10000 nM and 1170 nM

CC(C)NCC(C(=O)N1CCN(c2ncnc3c2C(C)CC3O)CC1)c1ccc(Cl)cc1 (stereo unspecified) + COc1cc2nc(C)nc(NC(C)c3cc(N)cc(C(F)(F)F)c3)c2cc1OC1CCOC1
IC50 [2]: 484 nM | IC50 [3]: 467 nM | IC50 [4]: 216 nM | IC50 [5]: 415 nM | IC50 [26]: 50.7 nM | viability, T/C [10]: 75.4% | viability, T/C [11]: 69.1% | viability, T/C [12]: 56.2% | viability, T/C [13]: 42% | viability, T/C [27]: 14.1% | viability, T/C [28]: 33.5% | viability, T/C [14]: 75.8% | viability, T/C [15]: 65.2% | viability, T/C [16]: 59.1% | viability, T/C [17]: 33.9% | viability, T/C [29]: 8.71% | viability, T/C [30]: 23.5% | viability, T/C [18]: 71.5% | viability, T/C [19]: 58.5% | viability, T/C [20]: 44% | viability, T/C [21]: 32.2% | viability, T/C [31]: 7.19% | viability, T/C [32]: 2.61% | viability, T/C [22]: 60.1% | viability, T/C [23]: 58.3% | viability, T/C [24]: 66.4% | viability, T/C [25]: 12% | viability, T/C [33]: 5.68% | viability, T/C [34]: 19.6% | viability, T/C [35]: 56.7% | viability, T/C [36]: 39.8% | viability, T/C [37]: 21.6% | viability, T/C [38]: 5.09% | viability, T/C [39]: 3.01% | viability, T/C [40]: 4.23%

O=C(c1cc(Cc2n[nH]c(=O)c3ccccc23)ccc1F)N1CCN(C(=O)C2CC2)CC1
viability, T/C (compound 0.0316 µM): 103% [middle of 5 runs] | viability, T/C (compound 0.1 µM): 99.1% [middle of 5 runs] | viability, T/C (compound 0.316 µM): 98.6% [middle of 5 runs] | viability, T/C (compound 1 µM): 93.1% [middle of 5 runs] | viability, T/C (compound 3.16 µM): 93.5% [middle of 5 runs] | viability, T/C (compound 10 µM): 97.9% [middle of 5 runs] | IC50 (curve of compound): > 10000 nM

CC1(C)CCC(CN2CCN(c3ccc(C(=O)NS(=O)(=O)c4ccc(NCC5CCOCC5)c([N+](=O)[O-])c4)c(Oc4cnc5[nH]ccc5c4)c3)CC2)=C(c2ccc(Cl)cc2)C1 + CC1OCC2(CCN(c3cnc(Sc4ccnc(N)c4Cl)c(N)n3)CC2)C1N
IC50 [2]: < 31.6 nM | IC50 [3]: < 31.6 nM | IC50 [4]: < 31.6 nM | IC50 [5]: < 31.6 nM | IC50 [26]: < 31.6 nM | viability, T/C [10]: 47% | viability, T/C [11]: 44.4% | viability, T/C [12]: 41.8% | viability, T/C [13]: 39.1% | viability, T/C [27]: 15.4% | viability, T/C [28]: 3.67% | viability, T/C [14]: 42.2% | viability, T/C [15]: 31.9% | viability, T/C [16]: 33.4% | viability, T/C [17]: 32.9% | viability, T/C [29]: 9.77% | viability, T/C [30]: 2.77% | viability, T/C [18]: 27.8% | viability, T/C [19]: 26.2% | viability, T/C [20]: 27% | viability, T/C [21]: 27.1% | viability, T/C [31]: 8.05% | viability, T/C [32]: 1.79% | viability, T/C [22]: 22.9% | viability, T/C [23]: 24% | viability, T/C [24]: 18.3% | viability, T/C [25]: 16.1% | viability, T/C [33]: 2.78% | viability, T/C [34]: 2.97% | viability, T/C [35]: 12.2% | viability, T/C [36]: 15.4% | viability, T/C [37]: 11.1% | viability, T/C [38]: 10.7% | viability, T/C [39]: 2.4% | viability, T/C [40]: 0.54%

CC1(C)CCC(CN2CCN(c3ccc(C(=O)NS(=O)(=O)c4ccc(NCC5CCOCC5)c([N+](=O)[O-])c4)c(Oc4cnc5[nH]ccc5c4)c3)CC2)=C(c2ccc(Cl)cc2)C1
viability, T/C (compound 0.0316 µM): 98.2% [middle of 5 runs] | viability, T/C (compound 0.1 µM): 94.7% [middle of 5 runs] | viability, T/C (compound 0.316 µM): 87% [middle of 5 runs] | viability, T/C (compound 1 µM): 89.9% [middle of 5 runs] | viability, T/C (compound 3.16 µM): 45.9% [middle of 5 runs] | viability, T/C (compound 10 µM): 12.4% [middle of 5 runs] | IC50 (curve of compound): 2.84 µM [middle of 5 runs]

O=C(c1cc(Cc2n[nH]c(=O)c3ccccc23)ccc1F)N1CCN(C(=O)C2CC2)CC1 + C=CC(=O)N1CCN(c2nc(OCC3CCCN3C)nc3c2CCN(c2cccc4cccc(C)c24)C3)CC1CC#N
IC50 [1]: < 31.6 nM | IC50 [2]: < 31.6 nM | IC50 [3]: < 31.6 nM | IC50 [4]: < 31.6 nM | IC50 [5]: < 31.6 nM | viability, T/C [6]: 33.1% | viability, T/C [7]: 28.8% | viability, T/C [8]: 89.6% | viability, T/C [9]: 26% | viability, T/C (second compound 0.0316 µM, first compound 3.16 µM): 30% | viability, T/C (second compound 0.0316 µM, first compound 10 µM): 30.3% | viability, T/C [10]: 21.3% | viability, T/C [11]: 22.5% | viability, T/C [12]: 23.6% | viability, T/C [13]: 24.1% | viability, T/C [27]: 27.9% | viability, T/C [28]: 34.4% | viability, T/C [14]: 25.6% | viability, T/C [15]: 26% | viability, T/C [16]: 24.1% | viability, T/C [17]: 24.4% | viability, T/C [29]: 23.6% | viability, T/C [30]: 29.6% | viability, T/C [18]: 27.9% | viability, T/C [19]: 28.3% | viability, T/C [20]: 26% | viability, T/C [21]: 25.6% | viability, T/C [31]: 25.8% | viability, T/C [32]: 30.9% | viability, T/C [22]: 30.1% | viability, T/C [23]: 29.2% | viability, T/C [24]: 33.1% | viability, T/C [25]: 30.4% | viability, T/C [33]: 35.4% | viability, T/C [34]: 24.3%
